Assay: xn = mol fraction of the nth substance listed

CCCCCCCC[n+]1ccccc1.[Br-] + O
100 kPa
Settings | electrical conductivity [S/m]
288.15 K, x1 = 0.0006303 | 0.31
288.15 K, x1 = 0.001206 | 0.47
288.15 K, x1 = 0.001745 | 0.62
288.15 K, x1 = 0.002301 | 0.78
288.15 K, x1 = 0.00309 | 0.98
288.15 K, x1 = 0.003806 | 1.12
288.15 K, x1 = 0.004431 | 1.22
288.15 K, x1 = 0.005002 | 1.29
288.15 K, x1 = 0.005537 | 1.35
288.15 K, x1 = 0.006018 | 1.4
288.15 K, x1 = 0.006445 | 1.44
288.15 K, x1 = 0.006854 | 1.48
288.15 K, x1 = 0.007227 | 1.51
288.15 K, x1 = 0.007547 | 1.54
293.15 K, x1 = 0.0006303 | 0.34
293.15 K, x1 = 0.001206 | 0.54
293.15 K, x1 = 0.001745 | 0.7
293.15 K, x1 = 0.002301 | 0.88
293.15 K, x1 = 0.00309 | 1.11
293.15 K, x1 = 0.003788 | 1.27
293.15 K, x1 = 0.004431 | 1.39
293.15 K, x1 = 0.005002 | 1.47
293.15 K, x1 = 0.00552 | 1.54
293.15 K, x1 = 0.006 | 1.59
293.15 K, x1 = 0.006445 | 1.65
293.15 K, x1 = 0.006837 | 1.69
293.15 K, x1 = 0.00721 | 1.73
293.15 K, x1 = 0.007547 | 1.76
298.15 K, x1 = 0.0006303 | 0.38
298.15 K, x1 = 0.001206 | 0.6
298.15 K, x1 = 0.001745 | 0.79
298.15 K, x1 = 0.002301 | 0.99
298.15 K, x1 = 0.00309 | 1.25
298.15 K, x1 = 0.003788 | 1.43
298.15 K, x1 = 0.004431 | 1.57
298.15 K, x1 = 0.005002 | 1.67
298.15 K, x1 = 0.00552 | 1.75
298.15 K, x1 = 0.006 | 1.81
298.15 K, x1 = 0.006428 | 1.87
298.15 K, x1 = 0.006837 | 1.93
298.15 K, x1 = 0.00721 | 1.98
298.15 K, x1 = 0.007529 | 2.02
303.15 K, x1 = 0.0006303 | 0.45
303.15 K, x1 = 0.001206 | 0.67
303.15 K, x1 = 0.001745 | 0.88
303.15 K, x1 = 0.002301 | 1.1
303.15 K, x1 = 0.00309 | 1.39
303.15 K, x1 = 0.003788 | 1.6
303.15 K, x1 = 0.004413 | 1.75
303.15 K, x1 = 0.004985 | 1.87
303.15 K, x1 = 0.005502 | 1.98
303.15 K, x1 = 0.005983 | 2.07
303.15 K, x1 = 0.006428 | 2.14
303.15 K, x1 = 0.006819 | 2.21
303.15 K, x1 = 0.007192 | 2.27
303.15 K, x1 = 0.007529 | 2.32
308.15 K, x1 = 0.0006303 | 0.48
308.15 K, x1 = 0.001206 | 0.73
308.15 K, x1 = 0.001745 | 0.97
308.15 K, x1 = 0.002283 | 1.21
308.15 K, x1 = 0.003072 | 1.54
308.15 K, x1 = 0.00377 | 1.77
308.15 K, x1 = 0.004413 | 1.98
308.15 K, x1 = 0.004985 | 2.13
308.15 K, x1 = 0.005502 | 2.23
308.15 K, x1 = 0.005983 | 2.33
308.15 K, x1 = 0.00641 | 2.42
308.15 K, x1 = 0.006819 | 2.49
308.15 K, x1 = 0.007192 | 2.56
308.15 K, x1 = 0.007512 | 2.62

CCCCCCCCn1cc[n+](C)c1.[Cl-] + O
Settings | electrical conductivity [S/m] | viscosity [mPa·s]
278.15 K, 100 kPa, x1 = 0.0001 | – | 1.534
278.15 K, 100 kPa, x1 = 0.0001668 | – | 1.543
278.15 K, 100 kPa, x1 = 0.0002526 | – | 1.559
278.15 K, 100 kPa, x1 = 0.0003767 | – | 1.575
278.15 K, 100 kPa, x1 = 0.0005495 | – | 1.603
278.15 K, 100 kPa, x1 = 0.000764 | – | 1.642
278.15 K, 100 kPa, x1 = 0.0009813 | – | 1.683
283.15 K, 100 kPa, x1 = 0.0001 | – | 1.316
283.15 K, 100 kPa, x1 = 0.0001668 | – | 1.322
283.15 K, 100 kPa, x1 = 0.0002526 | – | 1.33
283.15 K, 100 kPa, x1 = 0.0003767 | – | 1.346
283.15 K, 100 kPa, x1 = 0.0005495 | – | 1.368
283.15 K, 100 kPa, x1 = 0.000764 | – | 1.404
283.15 K, 100 kPa, x1 = 0.0009813 | – | 1.439
288.15 K, 100 kPa, x1 = 0.0001 | – | 1.151
288.15 K, 100 kPa, x1 = 0.0001668 | – | 1.165
288.15 K, 100 kPa, x1 = 0.0002526 | – | 1.182
288.15 K, 100 kPa, x1 = 0.0003767 | – | 1.206
288.15 K, 100 kPa, x1 = 0.0005495 | – | 1.233
288.15 K, 100 kPa, x1 = 0.000764 | – | 1.27
288.15 K, 100 kPa, x1 = 0.0009813 | – | 1.304
293.15 K, 100 kPa, x1 = 0.0001 | – | 1.01
293.15 K, 100 kPa, x1 = 0.0001668 | – | 1.014
293.15 K, 100 kPa, x1 = 0.0002526 | – | 1.021
293.15 K, 100 kPa, x1 = 0.0003767 | – | 1.031
293.15 K, 100 kPa, x1 = 0.0005495 | – | 1.046
293.15 K, 100 kPa, x1 = 0.000764 | – | 1.068
293.15 K, 100 kPa, x1 = 0.0009813 | – | 1.09
298.15 K, 100 kPa, x1 = 0.0001 | – | 0.898
298.15 K, 100 kPa, x1 = 0.0001668 | – | 0.901
298.15 K, 100 kPa, x1 = 0.0002526 | – | 0.906
298.15 K, 100 kPa, x1 = 0.0003767 | – | 0.916
298.15 K, 100 kPa, x1 = 0.0005495 | – | 0.929
298.15 K, 100 kPa, x1 = 0.000764 | – | 0.947
298.15 K, 100 kPa, x1 = 0.0009813 | – | 0.965
298.15 K, 101.3 kPa, x1 = 4.96e-06 | 0.00314 | –
298.15 K, 101.3 kPa, x1 = 7.53e-06 | 0.00467 | –
298.15 K, 101.3 kPa, x1 = 1.002e-05 | 0.00613 | –
298.15 K, 101.3 kPa, x1 = 1.247e-05 | 0.00756 | –
298.15 K, 101.3 kPa, x1 = 1.481e-05 | 0.00893 | –
298.15 K, 101.3 kPa, x1 = 1.716e-05 | 0.01029 | –
298.15 K, 101.3 kPa, x1 = 1.95e-05 | 0.0116 | –
298.15 K, 101.3 kPa, x1 = 2.177e-05 | 0.0129 | –
298.15 K, 101.3 kPa, x1 = 2.424e-05 | 0.01436 | –
298.15 K, 101.3 kPa, x1 = 2.667e-05 | 0.0158 | –
298.15 K, 101.3 kPa, x1 = 2.939e-05 | 0.0173 | –
303.15 K, 100 kPa, x1 = 0.0001 | – | 0.804
303.15 K, 100 kPa, x1 = 0.0001668 | – | 0.807
303.15 K, 100 kPa, x1 = 0.0002526 | – | 0.812
303.15 K, 100 kPa, x1 = 0.0003767 | – | 0.819
303.15 K, 100 kPa, x1 = 0.0005495 | – | 0.83
303.15 K, 100 kPa, x1 = 0.000764 | – | 0.845
303.15 K, 100 kPa, x1 = 0.0009813 | – | 0.861
308.15 K, 100 kPa, x1 = 0.0001 | – | 0.725
308.15 K, 100 kPa, x1 = 0.0001668 | – | 0.727
308.15 K, 100 kPa, x1 = 0.0002526 | – | 0.732
308.15 K, 100 kPa, x1 = 0.0003767 | – | 0.737
308.15 K, 100 kPa, x1 = 0.0005495 | – | 0.747
308.15 K, 100 kPa, x1 = 0.000764 | – | 0.761
308.15 K, 100 kPa, x1 = 0.0009813 | – | 0.775
313.15 K, 100 kPa, x1 = 0.0001 | – | 0.658
313.15 K, 100 kPa, x1 = 0.0002526 | – | 0.665
313.15 K, 100 kPa, x1 = 0.0003767 | – | 0.669
313.15 K, 100 kPa, x1 = 0.0005495 | – | 0.677
313.15 K, 100 kPa, x1 = 0.000764 | – | 0.689
313.15 K, 100 kPa, x1 = 0.0009813 | – | 0.701

298.15 K, 100 kPa, frequency 0.001 MHz
Settings | electrical conductivity [S/m]
x1 = 0.001709 | 0.532
x1 = 0.002014 | 0.588
x1 = 0.002301 | 0.647
x1 = 0.00266 | 0.716
x1 = 0.002911 | 0.765
x1 = 0.003215 | 0.824
x1 = 0.003519 | 0.889
x1 = 0.003824 | 0.941
x1 = 0.004074 | 0.978
x1 = 0.004467 | 1.02
x1 = 0.004967 | 1.08
x1 = 0.005947 | 1.16
